Measured values reported in patent US11197859B2 (AUTIFONY THERAPEUTICS LIMITED, priority 2010, dated 2021).
Entries after “also recorded” stand apart in the source; their conditions may differ.

Experiments:
Male CD-1 mice = assay: Psychostimulant (amphetamine)-induced hyperactivity in mice; settings: AMPH 2 mg/kg i.p. + clozapine 3 mg/kg i.p. 30 min before; over 60 min; mean ± sem; p<0.01 vs amphetamine alone
[1] = target: T1, human Kv3.2 channels (hKv3.2) (Homo sapiens, UniProt Q96PR1); assay: IonWorks Quattro electrophysiology, hKv3.2 currents, activation time constant (Tauact); assay type: cell-based; settings: hKv3.2, -15 mV pulse
T1 construct: expressed in transfected cells
T1 sequence (Q96PR1 1-638): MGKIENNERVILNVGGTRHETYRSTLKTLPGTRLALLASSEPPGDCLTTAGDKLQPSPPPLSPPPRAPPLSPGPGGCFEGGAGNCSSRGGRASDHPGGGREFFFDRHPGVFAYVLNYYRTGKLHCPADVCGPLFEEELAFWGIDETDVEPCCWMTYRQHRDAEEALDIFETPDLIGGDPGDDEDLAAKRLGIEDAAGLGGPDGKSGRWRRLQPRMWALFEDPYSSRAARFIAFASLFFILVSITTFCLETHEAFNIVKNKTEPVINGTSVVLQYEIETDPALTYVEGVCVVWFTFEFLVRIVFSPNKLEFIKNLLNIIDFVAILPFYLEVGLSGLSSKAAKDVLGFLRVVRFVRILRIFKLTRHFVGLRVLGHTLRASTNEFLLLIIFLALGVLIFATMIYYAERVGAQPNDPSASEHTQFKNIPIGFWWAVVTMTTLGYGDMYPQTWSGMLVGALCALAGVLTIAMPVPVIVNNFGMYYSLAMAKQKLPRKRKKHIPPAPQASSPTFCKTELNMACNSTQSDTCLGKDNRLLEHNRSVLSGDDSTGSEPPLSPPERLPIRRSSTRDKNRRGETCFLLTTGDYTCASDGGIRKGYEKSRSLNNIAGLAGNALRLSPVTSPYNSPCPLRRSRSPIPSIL
Procedure: The ability of the compounds of the disclosure to modulate the voltage-gated potassium channel subtypes Kv3.2/3.1 may be determined using the following assay.
To assess compound effects on human Kv3.2 channels (hKv3.2), a stable cell line expressing hKv3.2 was created by transfecting Chinese Hamster Ovary (CHO)-K1 cells with a pCIH5-hKv3.2 vector. Cells were cultured in DMEM/F12 medium supplemented by 10% Foetal Bovine Serum, 1× non-essential amino acids (Invitrogen) and 500 ug/ml of Hygromycin-B (Invitrogen). Cells were grown and maintained at 37° C. in a humidified environment containing 5% CO2 in air.
The day of the experiment, cells were removed from the incubator and the culture medium removed. Cells were washed with 5 ml of Dulbecco's PBS (DPBS) calcium and magnesium free and detached by the addition of 3 ml Versene (Invitrogen, Italy) followed by a brief incubation at 37° C. for 5 minutes. The flask was tapped to dislodge cells and 10 ml of DPBS containing calcium and magnesium was added to prepare a cell suspension. The cell suspension was then placed into a 15 ml centrifuge tube and centrifuged for 2 min at 1200 rpm. After centrifugation, the supernatant was removed and the cell pellet re-suspended in 4 ml of DPBS containing calcium and magnesium using a 5 ml pipette to break up the pellet. Cell suspension volume was then corrected to give a cell concentration for the assay of approximately 3 million cells per ml.
Experiments were conducted at room temperature using IonWorks Quattro™ planar array electrophysiology technology (Molecular Devices Corp.) with PatchPlate™ PPC. Stimulation protocols and data acquisition were carried out using a microcomputer (Dell Pentium 4). Planar electrode hole resistances(Rp) were determined by applying a 10 mV voltage step across each well. These measurements were performed before cell addition. […] Following this, amphotericin-B solution was added to the intracellular face of the electrode to achieve intracellular access. Cells were held at −70 mV. Leak subtraction was conducted in all experiments by applying 50 ms hyperpolarizing (10 mV) prepulses to evoke leak currents followed by a 20 ms period at the holding potential before test pulses. From the holding potential of −70 mV, a first test pulse to −15 mV was applied for 100 ms and following a further 100 ms at −70 mV, a second pulse to 40 mV was applied for 50 ms. Cells were then maintained for a further 100 ms at −100 mV and then a voltage ramp from −100 mV to 40 mV was applied over 200 ms. In all experiments, the test pulses protocol was performed in the absence (pre-read) and presence (post-read) of the test compound. Pre- and post-reads were separated by the compound addition followed by a 3 minute incubation.
The intracellular solution contained the following (in mM): K-gluconate 100, KCl 54, MgCl2 3.2, HEPES 5, adjusted to pH 7.3 with KOH. Amphotericin-B solution was prepared as 50 mg/ml stock solution in DMSO and diluted to a final working concentration of 0.1 mg/ml in intracellular solution.
The final assay dilution was 200 and the final compound concentrations were in the range 50 μM to 50 nM.
The recordings were analysed and filtered using both seal resistance (>20 MΩ) and peak current amplitude (>500 pA at the voltage step of 40 mV) in the absence of compound to eliminate unsuitable cells from further analysis. Kv3 channel-mediated outward currents were measured determined from the mean amplitude of the current over the final 10 ms of the −15 mV voltage pulse minus the mean baseline current at −70 mV over a 10 ms period just prior to the −15 mV step. This Kv3 channel currents following addition of the test compound were then compared with the currents recorded prior to compound addition. […] The normalised data were analysed using ActivityBase or Excel software.

[2] = system: "fast-firing" interneurons in the somatosensory cortex; assay: Recordings from fast-firing interneurons, spike probability on trains of depolarising pulses; assay type: cell-based, mouse; settings: 1 microM, n=6; trains at 100, 200, 300 Hz; effect at 300 Hz, p<0.05
Excerpt: Kv3.1 and Kv3.2 channels must activate and deactivate very rapidly in order to allow neurons to fire actions potentials at high frequency (Rudy and McBain, 2001, Trends in Neurosciences 24, 517-526). Slowing of activation is likely to delay the onset of action potential repolarisation; slowing of deactivation could lead to hyperpolarising currents that reduce the excitability of the neuron and delay the time before the neuron can fire a further action potential. Together these slowing effects on channel activation and deactivation are likely to lead to a reduction rather than a facilitation of the neurons ability to fire at high frequencies. Thus compounds that have this slowing effect on the Kv3.1 and/or Kv3.2 channels may slow neuronal firing.
The neurons are induced to fire at high frequencies by trains of high frequency depolarising current pulses at 100, 200, and 300 Hz. The ability of the neuron to fire an action potential on each pulse is determined. […] In the absence of drug (closed circles, n=9), the neurons maintained a spike probability of 1 up to 300 Hz.

[3] = system: common marmosets (Callithrix jacchus); assay: Pharmaco-electroencephalography (phEEG) in the common marmoset; assay type: in vivo
Procedure: Laboratory bred male (vasectomised) and female common marmosets (Callithrix jacchus) over 2 years of age, weighing 250-500 g were used in this study. The animals were caged in couples, in a housing room maintained at 25±1° C., 60% humidity and a 12 hour light/dark cycle (lights on at 0600, with 30 min simulated dawn and twilight). Animals received a standard diet and drinking water ad libitum. Only one animal of each pair was involved in the test, which was carried out with the animal situated in the home cage.
The effect of compounds of the disclosure was assessed using telemetric recording of cortical EEG (ECoG). A multichannel telemetric transmitter (DSI model TL11M2-F40-EET) is implanted intraperitoneally using standard surgical techniques in anaesthetised marmosets. Recording electrodes were permanently fixed, with dental cement, to the skull directly in contact with the dura mater through two drilled holes in the fronto-parietal region. Following surgery, animals were housed in pairs (one implanted, one unoperated partner) in their home cage with access to food and water ad libitum. […] All in vivo studies were conducted in accordance with the Italian laws and conformed to GlaxoSmithkline ethical standards.
The animals were placed in the nest-boxes in their room cages and EEG traces were recorded using Dataquest ART software for a 5-min period for each time-point and analyzed using Spike2 software (CED, UK). The spectral power in each frequency band was determined for each 2 sec epoch during the pre-treatment period and averaged; similarly spectral power in each band was determined for successive 2 sec epochs of each 5-min period of recording following vehicle or drug treatment. Change in the absolute spectral power, for each of the different bands (delta, theta, alpha and beta) was calculated offline.
Drug treatments were assigned according to a complete crossover design: All treatments were randomly distributed between animals, in separate experimental sessions, each animal received vehicle and each dose of drug, after an appropriate wash-out period.
Six animals were treated orally with Reference Example RE2 at the doses of 0.3, 1 and 3 mg/kg (1 ml/kg) and the EEG traces were recorded at +15, 30, 60, 90, 120 and 180 minutes following treatment. Reference Example RE2 was suspended in 12.5% (w/v) aqueous captisol containing 0.1% (w/v) Tween80 and 0.5% (w/v) HPMC.
Four different frequency bands were considered: delta (1.50-6.00 Hz), theta (6.00-8.00 Hz), alpha (8.00-12.00 Hz) and beta (12.00-30.00 Hz). Values for spectral power in each band at each time point were first log transformed and then analysed with a mixed effect model with time as fixed effect, the baseline level as covariate, and animal as random term. Data are summarised as mean of the percentage changes from baseline and standard error.

Male CD rats = assay: Electroshock seizure model in rats; assay type: in vivo, rat; settings: 300 mg/kg p.o., 1 hour before test; positive control
Procedure: Male CD rats (85-130 g) were supplied by Charles River, Italy.
Testing involved determining the threshold for tonic hindlimb extensor seizures using a Hugo Sachs Electronik stimulator which delivers a constant current of 0.3 second duration, 50 Hz, sinewave form, fully adjustable between 1 and 300 mA. Stimuli were delivered via corneal electrodes (Stean T O, Atkins A R, Heidbreder C A, Quinn L P, Trail B K, Upton N. (2005) Br J Pharmacol. 144(5):628-35). Seizure threshold was determined using the ‘up and down’ method of Kimball et al. (1957)(Kimball A W, Burnett W T Jr, Doherty D G. (1957) Radiat Res. 7(1):1-12). The first animal tested in each group was stimulated with a current that might be expected to be close to the threshold for induction of a seizure. If a tonic seizure was not induced, then the next animal in the group received a stimulus 5 mA higher. If a tonic seizure was induced, then the next animal received a stimulus 5 mA lower. This is repeated for all animals within the control (vehicle) group. In the case of groups treated with a test compound steps of 5 to 10 mA were used. At the end of the study, blood samples were taken for analysis of the drug concentrations in this compartment (n=4/group).
All doses were calculated as base. Sodium valproate was suspended in Methocell 1% (w/v) and dosed via the oral (p.o.) route at 5 mL/kg 1 hour before test. Reference Example RE1 was dissolved in DMSO and then suspended in Methocell 1% (w/v) to a final DMSO concentration of 5% (v/v). Reference Example RE1 was then dosed p.o. at 5 mL/kg 2 hours before test.
Induction of seizure is measured as an all-or-nothing effect scored as either present (+) or absent (0) for each animal. […] Drug effects were calculated as the % change in CC50. Significant differences between drug-treated animals and appropriate vehicle treated groups were assessed according to the methods of Litchfield and Wilcoxon (1949).

CN1CCN(C2=Nc3cc(Cl)ccc3Nc3ccccc32)CC1 [Clozapine, reference compound]
Total Distance Travelled (cm) (Male CD-1 mice): 932 ± 362 cm

CC[C@H]1NC(=O)N(c2ccc(Oc3cccc4c3C3(CC3)CO4)nc2)C1=O [Example 15, (5R)-5-ethyl-3-[6-(spiro[1-benzofuran-3,1′-cyclopropan]-4-yloxy)-3-pyridinyl]-2,4-imidazolidinedione]
Tauact mean ([1]; compound 0.2 μM (concentration giving ~0.3 nA current)): 50.1 ms | ability of neurons to fire (spike probability) on trains of depolarising pulses [2]: reduces the ability of the neurons to fire; also recorded: unable to follow trains at the highest frequency

CC[C@@]1(C)NC(=O)N(c2ccc(Oc3ccc(C)c(OC)c3)nc2)C1=O [RE2, (5R)-5-ethyl-5-methyl-3-(6-{[4-methyl-3-(methyloxy)phenyl]oxy}-3-pyridinyl)-2,4-imidazolidinedione]
Tauact mean ([1]; compound 12.5 μM (concentration giving ~0.3 nA current)): 7.3 ms | absolute EEG power in the beta band ([3]; 1 mg/kg oral, at 30 minutes (concomitant), vs vehicle, p<0.05): significant reduction | absolute EEG power in delta band ([3]; 1 mg/kg oral, at 30 minutes, vs vehicle, p<0.10): marginally significant (p<0.10) increase | EEG theta band power ([3]; 3 mg/kg oral, at 60 minutes, vs vehicle, p<0.05): statistically significant increase | absolute EEG power in the delta band ([3]; 3 mg/kg oral, between 30 and 120 minutes, vs vehicle, p<0.05): statistically significant increase | EEG power in the alpha band ([3]; any dose (0.3, 1, 3 mg/kg oral)): No significant effects

CCCC(CCC)C(=O)[O-].[Na+] [sodium valproate, Sodium valproate, reference compound]
increase in seizure threshold (% change in CC50) (Male CD rats): 258%
